These results are taken from US11191271B2, “Active compound combinations having insecticidal/acaricidal properties” (priority 2017, dated 2021).

Format in all cases: in vivo
Assay [1] deals with cotton aphid (Aphis gossypii). Description: Aphis gossypii - spray test. The note with it: for Efficacy in % after 6 days: mortality after 6 days; for Efficacy in % after 1 day: mortality after 1 day, cotton leaves. As to the method:
(§1) Formula for the Efficacy of the Combination of Two Compounds • The expected efficacy of a given combination of two compounds is calculated as follows (see Colby, S. R., “Calculating Synergistic and antagonistic Responses of Herbicide Combinations”, Weeds 15, pp. 20-22, 1967): • If • X is the efficacy expressed in % mortality of the untreated control for test compound A at a concentration of m ppm respectively m g/ha, • Y is the efficacy expressed in % mortality of the untreated control for test compound B at a concentration of n ppm respectively n g/ha, • E is the efficacy expressed in % mortality of the untreated control using the mixture of A and B at m and n ppm respectively m and n g/ha, • then is
(§2) [formula] • If the observed insecticidal efficacy of the combination is higher than the one calculated as “E”, then the combination of the two compounds is more than additive, i.e. there is a synergistic effect.
Aphis gossypii—Spray Test
(§3) Solvent: 7 parts by weight of dimethylformamide
(§4) Emulsifier: alkylaryl polyglycol ether
(§5) To produce a suitable preparation of active compound, 1 part by weight of active compound is mixed with the stated amount of solvent and is diluted with water, containing an emulsifier concentration of 1000 ppm, to the desired concentration. Further test concentrations are prepared by dilution with emulsifier containing water.
Cotton leaves (Gossypium hirsutum) which are heavily infested with the cotton aphid (Aphis gossypii) are treated by being sprayed with the preparation of the active compound of the desired concentration.
After the specified period of time the mortality in % is determined. 100% means all the aphids have been killed; 0% means none of the aphids have been killed. The mortality values determined thus are recalculated using the Colby-formula (see above).

In assay [2] the test system is caterpillars of the fall army worm (Spodoptera frugiperda). Put plainly: Spodoptera frugiperda - spray test. The note with it: for Efficacy in % after 1 day: mortality after 1 day; for Efficacy in % after 2 days: mortality after 2 days; for Efficacy in % after 3 days: mortality after 3 days; for Efficacy in % after 6 days: mortality after 6 days. As to the method:
as §1, §2
Spodoptera frugiperda—Spray Test
as §3, §4, §5
Cotton leaves (Gossypium hirsutum) are treated by being sprayed with the preparation of the active compound of the desired concentration and are infested with caterpillars of the fall army worm (Spodoptera frugiperda).
After the specified period of time mortality in % is determined. 100% means all the caterpillars have been killed and 0% means none of the caterpillars have been killed. The mortality values determined thus are recalculated using the Colby-formula (see above).

Assay [3] concerns two spotted spidermite (Tetranychus urticae). Put plainly: Tetranychus urticae - spray test OP-resistant. The note with it: for Efficacy in % after 6 days: mortality after 6 days; for Efficacy in % after 2 days: mortality after 2 days. Here is the method:
as §1, §2
Tetranychus urticae—Spray Test OP-Resistant
To produce a suitable preparation of active compound, 1 part by weight of active compound is mixed with the stated amount of solvents and is diluted with water, containing an emulsifier concentration of 1000 ppm, to the desired concentration. Further test concentrations are prepared by dilution with emulsifier containing water.
French bean (Phaseolus vulgaris) leaf disks infected with all instars of the two spotted spidermite (Tetranychus urticae), are sprayed with a preparation of the active ingredient of the desired concentration.
After the specified period of time, mortality in % is determined. 100% means all spider mites have been killed and 0% means none of the spider mites have been killed. The mortality values determined thus are recalculated using the Colby-formula (see above).

For the compound `Cc1cc(F)c(N=C2SCC(=O)N2CC(F)(F)F)cc1[S+]([O-])CC(F)(F)F` (stereo not shown) [Cpd of formula (I)], the “Efficacy in % after 6 days” value in assay [1] (0.8 ppm), in assay [1] (1.6 ppm), in assay [2] (0.3 ppm), in assay [2] (0.6 ppm), in assay [2] (1.2 ppm) and in assay [3] (0.1 g ai/ha) was 0% in each case. The “Efficacy in % after 1 day” value in assay [1] (1.6 ppm), in assay [2] (0.3 ppm), in assay [2] (0.6 ppm) and in assay [2] (1.2 ppm) was 0% each time. The “Efficacy in % after 2 days” value in assay [2] (0.3 ppm), in assay [2] (0.6 ppm), in assay [3] (0.4 g ai/ha), in assay [3] (1.6 g ai/ha) and in assay [3] (6.4 g ai/ha) was 0% throughout. In addition, the “Efficacy in % after 3 days” value in assay [2] (0.3 ppm), in assay [2] (0.6 ppm) and in assay [2] (1.2 ppm) was 0% each time.
Regarding `CNC(=O)c1cc(C#N)cc(C)c1NC(=O)c1cc(Cn2nnc(C(F)(F)F)n2)nn1-c1ncccc1Cl` [Tetraniliprole, 1-(3-chloro-2-pyridyl)-4′-cyano-2′-methyl-6′-methylcarbamoyl-3-{[5-(trifluoromethyl)-2H-tetrazol-2-yl]methyl}pyrazole-5-carboxanilide], the figures for the “Efficacy in % after 1 day” value in assay [2] (0.06 ppm), in assay [2] (0.12 ppm) and in assay [2] (0.24 ppm) were 0%, 30% and 40%, respectively. In addition, the “Efficacy in % after 2 days” value in assay [2] (0.06 ppm) is given as 60%; in assay [3] (0.2 g ai/ha), 0%; in assay [3] (0.8 g ai/ha), 0%; in assay [3] (3.2 g ai/ha), 0%. Also, the “Efficacy in % after 6 days” value in assay [3] (0.05 g ai/ha) was found to be 0%.
As to `CNC(=O)c1cc(C#N)cc(C)c1NC(=O)c1cc(Br)nn1-c1ncccc1Cl` [Cyantraniliprole, 3-bromo-1-(3-chloro-2-pyridyl)-4′-cyano-2′-methyl-6′-(methylcarbamoyl)pyrazole-5-carboxanilide], the “Efficacy in % after 2 days” value in assay [2] (0.12 ppm), in assay [2] (0.24 ppm), in assay [3] (0.2 g ai/ha), in assay [3] (0.8 g ai/ha) and in assay [3] (3.2 g ai/ha) was 0% throughout. The “Efficacy in % after 3 days” value amounted to 0% in assay [2] (0.12 ppm), 10% in assay [2] (0.24 ppm) and 60% in assay [2] (0.48 ppm). For the same compound, the “Efficacy in % after 6 days” value in assay [2] (0.12 ppm) is reported as 10%; in assay [2] (0.24 ppm), 20%; in assay [2] (0.48 ppm) it was 70%. Also, the “Efficacy in % after 1 day” value in assay [2] (0.24 ppm) is given as 0%.
Regarding `CNC(=O)c1cc(Cl)cc(C)c1NC(=O)c1cc(Br)nn1-c1ncccc1Cl` [Chlorantraniliprole, 3-bromo-4′-chloro-1-(3-chloro-2-pyridyl)-2′-methyl-6′-(methylcarbamoyl)pyrazole-5-carboxanilide], the “Efficacy in % after 1 day” value in assay [1] (8 ppm) came to 10%. For the same compound, in assay [1] (8 ppm), the “Efficacy in % after 6 days” value stood at 45%. For the same compound, the “Efficacy in % after 2 days” value in assay [3] (0.2 g ai/ha), in assay [3] (0.8 g ai/ha) and in assay [3] (3.2 g ai/ha) was 0% each time.
